The values below come from the OPERA property sets (Mansouri et al. 2018).

Molecules are shown by their SMILES.

On to `O=c1cc(-c2ccccc2)oc2cccc(O)c12`, for which the logP is 4.3.
Next, `Oc1cc(O)c2c(c1)O[C@H](c1ccc(O)c(O)c1)[C@@H](O)C2`: 0.51.
`O=c1cc(-c2ccc(O)c(O)c2)oc2cc(O)cc(O)c12`: the logP was 2.53.
The compound `C[C@@H]1O[C@@H](O[C@H]2[C@H](Oc3cc(O)c4c(c3)O[C@H](c3ccc(O)cc3)CC4=O)O[C@H](CO)[C@@H](O)[C@@H]2O)[C@H](O)[C@H](O)[C@H]1O` gave a log partition coefficient (logP) of -0.44.
As for `O=C1c2c(O)cc(O)cc2O[C@H](c2ccc(O)c(O)c2)[C@H]1O`, the log partition coefficient (logP) was determined as 0.95.
Consider `O=C1C[C@@H](c2ccc(O)cc2)Oc2cc(O)cc(O)c21`, for which the log partition coefficient (logP) is 2.52.
`O=c1cc(-c2ccccc2)oc2cc(O)cc(O)c12` had a log partition coefficient (logP) of 3.52.
Consider `O=C1CC(c2cccc(O)c2)Oc2cc(O)cc(O)c21` (configuration not stated), for which the logP was determined as 2.61.
`COc1ccc([C@@H]2CC(=O)c3c(O)cc(O)cc3O2)cc1O` had a logP of 2.6.
In turn, `O=c1cc(-c2ccc(O)c(O)c2)oc2cccc(O)c12` showed a logP of 3.31.
Turning to `O=C1c2ccc(O)cc2OC(c2ccc(O)c(O)c2)C1O` (configuration not stated), the lipophilicity (logP) was determined as 0.87.
Take `COc1ccc(-c2cc(=O)c3c(O)cc(O[C@@H]4O[C@H](CO[C@@H]5O[C@@H](C)[C@H](O)[C@@H](O)[C@H]5O)[C@@H](O)[C@H](O)[C@H]4O)cc3o2)cc1O`: the logP amounted to 0.14.
On to `COc1ccc(-c2cc(=O)c3c(O)cc(O)cc3o2)cc1O`, for which the logP came out at 3.1.
As for `O=C1CC(c2ccc(O)c(O)c2)Oc2cc(O)cc(O)c21` (configuration not stated), the figure is 2.02.
The compound `O=C1C[C@@H](c2ccc(O)c(O)c2)Oc2cc(O)ccc21` came in with a log partition coefficient (logP) of 1.94.
The compound `O=c1cc(-c2ccc(O)cc2)oc2cc(O)cc(O)c12` showed a logP of 3.02.
The compound `O=C1CC(c2ccc(O)c(O)c2)Oc2cccc(O)c21` (configuration not stated) gave a logP of 2.81.

What is called logP is a log measure of how a compound divides between an organic and an aqueous phase. Lower therefore signals lower lipophilicity.
